For series [1], the target named is T1, β1c subunit of human cCP (Homo sapiens, UniProt P28072+Q99436).
T1 construct: purchased Boston Biochem, Inc
As to the kind of experiment: IC50 determination with subunit-specific fluorogenic substrate Ac-nLPnLD-AMC. Format: biochemical. The settings on record: human cCP; mean of at least three experiments; NA: not active at 50 μM.
Method: (§1) The measurements of the residual activity of control compounds were carried out at final compound concentrations of 1 μM in the assay buffer (50 mM Tris-HCl, 0.5 mM ethylenediaminetetraacetic acid (EDTA), pH 7.4). Stock solutions of the compounds were prepared in DMSO. To the 35 μL of solution of the compound in the buffer, 35 μL of 0.4 nM human iCP (South Bay Bio, San Jose, CA, USA) or human cCP (Boston Biochem, Inc., Cambridge, MA, USA) was added. For assays evaluating the activity of β2c and β2i, the buffer was modified by adding the proteasomal activator PA28β (Boston Biochem, Inc., Cambridge, MA, USA) at a final concentration of 6 nM. […] The substrates used were acetyl-Nle-Pro-Nle-Asp-7-amino-4-methylcoumarin (Ac-nLPnLD-AMC, Bachem, Bubendorf, Switzerland) for β1c, acetyl-Pro-Ala-Leu-7-amino-4-methylcoumarin (Ac-PAL-AMC, Boston Biochem, Inc., Cambridge, MA, USA) for β1i, acetyl-Arg-Leu-Arg-7-amino-4-methylcoumarin (Ac-RLR-AMC, Bachem, Bubendorf, Switzerland) for β2c and β2i, acetyl-Trp-Leu-Ala-7-amino-4-methylcoumarin (Ac-WLA-AMC, Bachem, Bubendorf, Switzerland) for β5c, and acetyl-Ala-Asn-Trp-7-amino-4-methylcoumarin (Ac-ANW-AMC, Bachem, Bubendorf, Switzerland) for β5i. Progress of the reaction was measured using a BioTek Synergy HT microplate reader, monitoring fluorescence at 460 nm (excitation at 360 nm) for 60 min at 37 °C. The initial linear ranges were used to calculate the reaction velocity and determine the residual activity.
(§2) The final assay mixtures contained 0.4 nM human iCP or cCP in assay buffer (50 mM Tris-HCl, 0.5 mM EDTA, pH 7.4, addition of PA28β for β2c and β2i subunits). […] After incubation at 37 °C for 30 min, the reaction was initiated by the addition of the substrate Ac-nLPnLD-AMC for β1c, Ac-PAL-AMC for β1i, Ac-RLR-AMC for β2c and β2i, Ac-WLA-AMC for β5c, and Ac-ANW-AMC for β5i. Fluorescence was monitored at 460 nm (excitation at 360 nm) for 60 min at 37 °C. The reaction progress was recorded and the initial linear phases were used to determine the velocity. The IC50 values were calculated using GraphPad Prism software (GraphPad Software, San Diego, CA, USA), and the results represent the mean values of at least three independent determinations.

In series [2] the target is T2, β2c subunit of human cCP (Homo sapiens, UniProt P49720+Q99436).
T2 construct: purchased Boston Biochem, Inc
The series can be described thus: IC50 determination with fluorogenic substrate Ac-RLR-AMC (PA28β added). The series is classed as biochemical. The settings on record: human cCP; mean of at least three experiments; NA: not active at 50 μM.
Method: Stock solutions of the compounds were prepared in DMSO. To the 35 μL of solution of the compound in the buffer, 35 μL of 0.4 nM human iCP (South Bay Bio, San Jose, CA, USA) or human cCP (Boston Biochem, Inc., Cambridge, MA, USA) was added. For assays evaluating the activity of β2c and β2i, the buffer was modified by adding the proteasomal activator PA28β (Boston Biochem, Inc., Cambridge, MA, USA) at a final concentration of 6 nM. […] The substrates used were acetyl-Nle-Pro-Nle-Asp-7-amino-4-methylcoumarin (Ac-nLPnLD-AMC, Bachem, Bubendorf, Switzerland) for β1c, acetyl-Pro-Ala-Leu-7-amino-4-methylcoumarin (Ac-PAL-AMC, Boston Biochem, Inc., Cambridge, MA, USA) for β1i, acetyl-Arg-Leu-Arg-7-amino-4-methylcoumarin (Ac-RLR-AMC, Bachem, Bubendorf, Switzerland) for β2c and β2i, acetyl-Trp-Leu-Ala-7-amino-4-methylcoumarin (Ac-WLA-AMC, Bachem, Bubendorf, Switzerland) for β5c, and acetyl-Ala-Asn-Trp-7-amino-4-methylcoumarin (Ac-ANW-AMC, Bachem, Bubendorf, Switzerland) for β5i. Progress of the reaction was measured using a BioTek Synergy HT microplate reader, monitoring fluorescence at 460 nm (excitation at 360 nm) for 60 min at 37 °C. The initial linear ranges were used to calculate the reaction velocity and determine the residual activity.
as §2

The target in series [3] is T3, β5c subunit of human cCP (Homo sapiens, UniProt P20618+P28074).
T3 construct: purchased Boston Biochem, Inc
The series can be described thus: IC50 determination with fluorogenic substrate Ac-WLA-AMC. The series is classed as biochemical. The settings on record: human cCP; mean of at least three experiments; NA: not active at 50 μM.
Method: as §1, §2

The test system of series [4] is LPS-stimulated PBMCs. The series can be described thus: Cytokine secretion, Cytometric Bead Array. The series is classed as cell-based, human. The settings on record: for dose-dependent effects on cytokine release from LPS-stimulated PBMCs: dose–response curves (Figure S12). The method, then: PBMCs (1.5 × 10^6/mL) were plated in culture media in 96-well round-bottom plates. After a 60 min treatment with compounds at 37 °C and 5% CO2, cells were stimulated with LPS (Escherichia coli, O111:B4, 1 μg/mL, Sigma) for 24 h. Supernatants were then collected and analyzed for cytokine release by Human Inflammatory Cytokine Cytometric Bead Array (BD Biosciences, New Jersey, USA).

The nature of series [5]: Metabolic stability in human liver microsomes. Format: in vitro ADME. The settings on record: for half-life at 2 μM / k el at 2 μM / microsomal CLint at 2 μM: pH 7.4, human liver microsomes, 40 min. As to the method: Metabolic stability in human liver microsomes
Microsomal incubations were carried out in 96-well plates in 5 aliquots of 30 μL each (one for each time point). Liver microsomal incubation medium comprised of phosphate buffer (100 mM, pH 7.4), MgCl2 (3.3 mM), NADPН (3 mM), glucose-6-phosphate (5.3 mM), glucose-6-phosphate dehydrogenase (0.67 units/ml) with 0.42 mg of liver microsomal protein per mL. In the control reactions, the NADPH-cofactor system was substituted with phosphate buffer. Test compounds (2 μM, final acetonitrile concentration 1.6 %) were incubated with microsomes at 37 °C, shaking at 100 rpm. Five time points over 40 min were analyzed. The reactions were stopped by adding 4 volumes of acetonitrile with internal standard to incubation aliquots, followed by protein sedimentation by centrifuging at 5500 rpm for 5 min. Each reaction was performed in duplicates. Supernatants were analyzed using the HPLC system coupled with a tandem mass spectrometer. […]
Background: Liver microsomes are vesicles of endoplasmic reticulum, rich in cytochrome P450 enzymes.

Series [6] can be described thus: Gastrointestinal tract parallel artificial membrane permeability (PAMPA) assay. The series is classed as in vitro ADME. The settings on record: GIT PAMPA; for Permeability, Log10 [cm/s]: pH 7.4, 50 μM, 4 hours; for Papp at 4 h, 50 μM: pH 7.4, read-out: Pe. As to the method: Gastrointestinal tract parallel artificial membrane permeability (PAMPA) assay All steps of the PAMPA were carried out according to the pION Inc. PAMPA Explorer™ Manual. The main principle of the assay is the incubation of the compound in the donor chamber (a well in the Donor Plate) with an aqueous buffer, which is separated from the acceptor chamber (a well in the Acceptor Plate) with another buffer by a phospholipid or hydrocarbon membrane fixed on a filter support. After the test, concentrations in the corresponding donor and acceptor wells are measured, and permeability is calculated. The GIT model was simulated using the GIT-0 phospholipid mix.
Verapamil, quinidine (high permeability), and ranitidine (low permeability) were used as reference […]
All compounds were tested in triplicate. Prisma HT buffer (pH 7.4) containing 50 μM test compounds (0.5% DMSO) was added to the Donor Plate wells. Acceptor Sink Buffer was added to each well of the Acceptor Plate. Incubation was done at room temperature for 4 hours without stirring. After […]
incubation, aliquots from both plates were transferred to optic UV-Vis plates, and optic plates were read on a microplate reader in absorbance mode in the range of 230-550 nm with a 4 nm step. Then, the apparent permeability coefficient was calculated. […]
In order to define non-specific loss of the compound during this assay, standard solution was created by mixing an aliquot of spiked plasma with blank buffer without dialysis. Two aliquots of the standard solution were incubated with shaking (250 rpm) at 37 °C, 5% CO2, and a saturating humidity (~95%) for 5 h (recovery samples). The other two aliquots were immediately diluted with acetonitrile and stored at 4 °C until LC-MS/MS analysis (stability samples). All samples were diluted 5-fold with 90% acetonitrile with internal standard with subsequent plasma proteins sedimentation by centrifuging at 6000 rpm for 5 min. Supernatants were analyzed using HPLC system coupled with tandem mass spectrometer. Verapamil was used as a reference compound to control proper assay […]
Bortezomib and its analogs are known to exist as the free boronic acid as well as dimeric and trimeric boronic anhydrides. These forms interconvert rapidly in solution and are indistinguishable by routine […]
activity of such compounds. On UHPLC, the interconverting boronic species were not chromatographically resolved; however, diastereomers were at least partially separated, yielding two distinct chromatographic signals with identical mass spectra. By contrast, the bortezomib reference standard produced a single chromatographic signal, consistent with its pure enantiomeric form (see
In general terms: PAMPA measures passive passage across an artificial lipid membrane.

In series [7] the target is β5i subunit of human iCP (Homo sapiens, UniProt P20618+P28062). The series can be described thus: IC50 determination with fluorogenic substrate Ac-ANW-AMC. The settings on record: IC50 β5i, human iCP; mean of at least three experiments; NA: not active at 50 μM.
Method: as §1, §2
Series [8] has as its target β2i subunit of human iCP (Homo sapiens, UniProt P40306+P49720). As to the kind of experiment: IC50 determination with fluorogenic substrate Ac-RLR-AMC (PA28β added).
Method: as §1, §2
For series [9], the target named is β1i subunit of human iCP (Homo sapiens, UniProt P28065+P40306). The series can be described thus: IC50 determination with subunit-specific fluorogenic substrate Ac-PAL-AMC. The settings on record: IC50 β1i, human iCP; mean of at least three experiments; NA: not active at 50 μM.
Method: as §1, §2
Series [10] has as its system PBMCs. As to the kind of experiment: Cytotoxicity MTS assay. Format: cell-based, human. The settings on record: 10, 50 and 250 nM, 24 h, MTS (Figure S1).
Method: Buffy coats from venous blood of anonymized healthy donors were purchased from Blood Transfusion Centre of Slovenia. PBMCs were isolated by density gradient centrifugation with Ficoll-Paque (Pharmacia, Sweden). The isolated cells were resuspended in RPMI 1640 medium (Sigma-Aldrich, St. Louis/MO, United States) supplemented with 10% heat-inactivated FBS (Gibco, ThermoFisher Scientific, Waltham/MA, United States), 2 mM L-glutamine (Sigma-Aldrich, St. Louis/MO, United States), 100 U/mL penicillin (Sigma-Aldrich, St. Louis/MO, United States), and 100 μg/mL streptomycin (Sigma-Aldrich, St. Louis/MO, United States).
Cytotoxicity was determined using the MTS cell proliferation assay (CellTiter 96 AQueous One Solution Cell Proliferation Assay, Promega, Wisconsin, USA), which measures mitochondrial metabolic activity as a surrogate for cell viability. The assay was performed according to the manufacturer protocol. The cytotoxicity was performed on HepG2, MCF-7, MDA-MB-231, MOLT-4, MM.1S, THP-1, RAJI cell lines and on HUVECs as well as PBMCs. The cells were seeded in 96-well plates (15.000–30.000 cells/well). After 24 h incubation at 5% CO2 and 37 °C, the cells were treated either with DMSO (negative control) or solutions of the tested compounds in DMSO. […] Cells were incubated for additional 2 h - 4 h, followed by the measurement of absorbance at 490 nm on the Tecan Spark microplate reader.
Series [11] has as its system human umbilical vein endothelial cells. As to the kind of experiment: Cytotoxicity MTS assay. The settings on record: 10, 50 and 250 nM, 72 h, MTS (Figure S2). The series is classed as cell-based. (Formazan colour is commonly taken as a measure of viable cells.)
Method: Cytotoxicity was determined using the MTS cell proliferation assay (CellTiter 96 AQueous One Solution Cell Proliferation Assay, Promega, Wisconsin, USA), which measures mitochondrial metabolic activity as a surrogate for cell viability. The assay was performed according to the manufacturer protocol. The cytotoxicity was performed on HepG2, MCF-7, MDA-MB-231, MOLT-4, MM.1S, THP-1, RAJI cell lines and on HUVECs as well as PBMCs. The cells were seeded in 96-well plates (15.000–30.000 cells/well). After 24 h incubation at 5% CO2 and 37 °C, the cells were treated either with DMSO (negative control) or solutions of the tested compounds in DMSO. After 24 or 72 h, MTS reagent was added. Cells were incubated for additional 2 h - 4 h, followed by the measurement of absorbance at 490 nm on the Tecan Spark microplate reader.

Broadly, the IC50 is the point on the concentration scale where inhibition reaches its midpoint. Broadly, the half-life is the time needed for the level to fall by half in the phase considered. Broadly, the microsomal CLint is a measure of how fast metabolising enzymes remove a compound, apart from limits set by blood flow. Read a low microsomal CLint as slow turnover. `O=C(N[C@@H](Cc1ccccc1)C(=O)N[C@H](B(O)O)C1CCCC1)c1cnccn1` [5l, ((R)-Cyclopentyl((S)-3-phenyl-2-(pyrazine-2-carboxamido)propanamido)methyl)boronic Acid]: the IC50 was found to be 18 nM in [1]; 37.4 µM in series [2]; 44 nM in series [3]; 58 nM in [7]; 1000 nM in [8]; 3 nM in [9]. Moreover, the “Effect on secretion of cytokines in LPS-stimulated PBMCs” value in series [4] (250 nM, 1 h pretreatment, LPS 1 μg/mL, 24 h, IL-1, IL-6, IL-8, IL-10, TNF-α) was “strongest effects”. In addition, in series [4], the “dose-dependent effects on cytokine release from LPS-stimulated PBMCs” value is “very comparable effects”. Besides, the microsomal stability entry in series [5] (compared with bortezomib) was “higher microsomal stability”. In [5], this compound came in with a half-life at 2 μM of 39.4 min. Further, the k el at 2 μM in [5] is 0.0003 s⁻¹. Also, the microsomal CLint at 2 μM in [5] came out at 42 µL/min/mg. This compound yielded a Pe in series [6] of 15.8 ×10⁻⁶ cm/s. In addition, the “Permeability, Log10 [cm/s]” value in series [6] was -4.8 ± 0.06 Log10 [cm/s]. Besides, in series [6], the Papp at 4 h, 50 μM came to 15.8 ×10⁻⁶ cm/s.

Turning to `CC(C)C[C@H](NC(=O)[C@H](Cc1ccccc1)NC(=O)c1cnccn1)B(O)O` [bortezomib, reference compound], the “cytotoxic effect on PBMCs” value in series [10] is given as “more cytotoxic”. Also, in series [11], the “cytotoxic effect on human umbilical vein endothelial cells” value is recorded as “more cytotoxic”. In series [4], the “dose-dependent effects on cytokine release from LPS-stimulated PBMCs” value is reported as “very comparable effects”. In [5], this compound showed a half-life at 2 μM of 34.5 min, a k el at 2 μM of 0.000333 s⁻¹ and a microsomal CLint at 2 μM of 48 µL/min/mg. Further, in series [6], the Pe worked out at 15.8 ×10⁻⁶ cm/s; the “Permeability, Log10 [cm/s]” value is -4.8 ± 0.02 Log10 [cm/s]; the Papp at 4 h, 50 μM amounted to 15.8 ×10⁻⁶ cm/s.
